Measurements taken from patent US7759358B2, “Oral bioavailable prodrugs” (priority 2003, dated 2010).
“Also recorded” adds a separate entry of the source.

Columns and labels:
[1] = oral therapy; cited from earlier work
[2] = In vitro diffusion studies with human skin (flow-through diffusion cells); format: in vitro ADME; details: for in vitro NTX (equivalent) flux across human skin, NTX-NTX compared with NTX: FIG. 2, mean of nine cells NTX and twelve cells NTX-NTX, three donors, paired Student's t-test p<0.05
Procedure: In vitro diffusion studies were conducted using human skin harvested during abdominal reduction surgery. Skin sections were obtained by using a Padgett dermatome set to 250 microns, and then were frozen at −20° C. until the time of the experiment. A PermeGear flow-through (In-Line, Riegelsville, Pa.) diffusion cell system was used for the diffusion studies. Data was collected utilizing three different specimens of frozen human tissue from three different donors. The human tissues had been frozen from two to five months. Three diffusion cells were used for NTX and four cells were used for NTX-NTX. A receiver buffer of HEPES-buffered Hank's balanced salts solution with gentamicin at pH of 7.3-7.4 was collected at a flow rate of 1.1 mL/h. A saturated NTX or NTX-NTX solution in light mineral oil was applied to the skin cells. Each cell received 0.25 mL of the respective drug solution. Samples were collected in six hour increments for 48 hours. After a six hour sample was obtained, they were stored at 4° C. until solid phase extraction processing. Skin cells were kept at 32° C. with a circulating water bath set to 39° C.
The diffusion data were plotted as the cumulative quantity of NTX equivalents collected in the receiver cell as a function of time. The flux value for a given experiment was computed from Fick's First Law of diffusion:
where Js is the steady-state flux, M is the cumulative amount of intact drug permeating the skin, A is the area of the cell (0.95 cm^2), Kp is the effective permeability coefficient in cm/h, and ΔC is the difference in concentration of NTX or NTX-NTX in the donor and receiver. Buildup in the receiver cell was kept to a minimum throughout the studies.
[…] in the skin and appeared as NTX in the receiver collection. The total amounts of NTX that absorbed through the skin and into the receiver from NTX and NTX-NTX were used in the data analysis. […] Data represent the mean±standard deviation of the nine skin cells with NTX and the twelve skin cells with NTX-NTX. Three individual human donor skin tissues were used. Due to the high variability of human skin, NTX was used with each experiment as a control. The results are reported in NTX nmol equivalents because the NTX-NTX duplex contains two molecules of NTX. Approximately 4% of the NTX flux was from the intact NTX-NTX prodrug, and 96% was NTX originating from the hydrolysis of NTX-NTX.
The data represents the mean±standard deviation of the nine cells with NTX and the twelve cells of NTX-NTX. Three individual human donor skin tissues were used.

[3] = Drug concentration in the skin after the 48 hour diffusion study
[4] = saturated solution in light mineral oil, human skin, 32° C., 48 hours, receiver collection

| SMILES | hepatotoxicity [1] | in vitro NTX (equivalent) flux across human skin, NTX-NTX compared with NTX [2] | in vitro NTX (equivalent) flux across human skin, NTX-NTX compared with NTX ([2]; listed as duplex prodrug of NTX) | share of the NTX flux that was NTX originating from the hydrolysis of NTX-NTX [2, 4] [%] | share of the NTX flux that was intact NTX-NTX prodrug [2, 4] | total NTX equivalent skin concentration, NTX-NTX-treated skin versus NTX-treated skin ([3]; after 48 hour diffusion study, FIG. 3) | share of the drug extracted from the NTX-NTX-treated skin that was NTX (bioconversion) ([3]; end of the 48 hour study, human skin) [%] |
| --- | --- | --- | --- | --- | --- | --- | --- |
| O=C1CC[C@@]2(O)[C@H]3Cc4ccc(O)c5c4[C@@]2(CCN3CC2CC2)[C@H]1O5 [NTX, Naltrexone] | dose-related hepatocellular injury |  |  |  |  |  |  |
| O=C(Oc1ccc2c3c1OC1C(=O)CC[C@@]4(O)[C@@H](C2)N(CC2CC2)CC[C@]314)Oc1ccc2c3c1OC1C(=O)CC[C@@]4(O)[C@@H](C2)N(CC2CC2)CC[C@]314 (stereo partly shown) [NTX-NTX, 3,3′-Di-(N-cyclopropylmethyl-4,5-epoxy-14-hydroxy-morphinan-6-one-3-yl) Carbonate] |  | significant difference between the means; also recorded: significant increase in NTX equivalent flux | unexpected increase of NTX maximum flux rate | 96 | Approximately 4% | No significant difference | 66 |
